According to US7662825B2, “N-pyrazinyl-phenylsulphonamides and their use in the treatment of chemokine mediated diseases” (AstraZeneca AB, priority 2002, dated 2010):

Test system: not given
Assay: not given
Conditions: not given

Structure (SMILES)	melting point [°C]
COC(=O)c1nc(OC)c(NS(=O)(=O)c2cccc(Cl)c2Cl)nc1C [Example 119, 5-(2,3-Dichlorobenzenesulphonylamino)-6-methoxy-3-methylpyrazine-2-carboxylic aicd, methyl ester]	149 to 150
Cc1c(Cl)cccc1S(=O)(=O)Nc1ncc(Cl)nc1OCc1cccnc1 [Example 95, 3-Chloro-N-[5-chloro-3-(3-pyridinylmethoxy)-2-pyrazinyl]-2-methylbenzenesulphonamide]	192 to 193
COC(=O)COc1cnc(NS(=O)(=O)c2cccc(Cl)c2Cl)c(OC)n1 [Example 199, {[5-(2,3-Dichlorophenylsulfonylamino)-6-methoxy-2-pyrazinyl]oxy}acetic acid, methyl ester]	185 to 190
COC(=O)c1cnc(NS(=O)(=O)c2cccc(Cl)c2Cl)c(OC)n1 [Example 113, 5-(2,3-Dichlorobenzenesuphonylamino)-6-methoxypyrazine-2-carboxylic acid, methyl ester]	120 to 121
COc1nc(Cl)cnc1NS(=O)(=O)c1cccc(Cl)c1C [Example 50, 3-Chloro-N-(5-chloro-3-methoxy-2-pyrazinyl)-2-methylbenzenesulphonamide]	150 to 152
COc1cnc(NS(=O)(=O)c2cccc(Cl)c2Cl)c(OC)n1 [Example 56, 2,3-Dichloro-N-[3,5-dimethoxy-2-pyrazinyl]benzenesulphonamide]	138 to 139
CCCCOc1nc(Cl)cnc1NS(=O)(=O)c1cccc(Cl)c1Cl [Example 91, N-(3-Butoxy-5-chloro-2-pyrazinyl)-2,3-dichlorobenzenesulphonamide]	133 to 134
C#CCOc1cnc(NS(=O)(=O)c2cccc(Cl)c2Cl)c(OC)n1 [Example 198, 2,3-Dichloro-N-[3-methoxy-5-(2-propyn-1-yloxy)-2-pyrazinyl]benzenesulphonamide]	110 to 112
Cc1cccc(COc2nc(C)cnc2NS(=O)(=O)c2cccc(Cl)c2Cl)n1 [Example 23, 2,3-Dichloro-N-[5-methyl-3-(6-methyl-2-pyridinylmethoxy)-2-pyrazinyl]benzenesulphonamide]	164 to 165
COc1nc(C#N)cnc1NS(=O)(=O)c1cccc(Cl)c1Cl [Example 190, 2,3-Dichloro-N-(5-cyano-3-methoxy-2-pyrazinyl)benzenesulphonamide]	239 to 240
O=S(=O)(Nc1ncc(Br)nc1OCc1cccnn1)c1cccc(Cl)c1Cl [Example 33]	115 to 120
COc1nc(Cl)c(Cl)nc1NS(=O)(=O)c1ccccc1Cl [Example 60, 2-Chloro-N-(5,6-dichloro-3-methoxy-2-pyrazinyl)benzenesulphonamide]	217 to 218

Other lines, results leading:

melting point [°C]	Structure (SMILES)
180 to 181	COc1nc(SCCO)cnc1NS(=O)(=O)c1cccc(Cl)c1Cl [Example 177, 2,3-Dichloro-N-[5-(2-hydroxyethylsulphanyl)-3-methoxy-2-pyrazinyl]benzenesulphonamide]
158 to 159	COc1nc(SCC#N)cnc1NS(=O)(=O)c1cccc(Cl)c1Cl [Example 171, 2,3-Dichloro-N-[5-cyanomethylsulphanyl-3-methoxy-2-pyrazinyl]benzenesulphonamide]
196 to 198	O=S(=O)(Nc1ncc(Cl)nc1OCc1cccc(CNCCO)c1)c1cccc(Cl)c1Cl [Example 108, 2,3-Dichloro-N-[5-chloro-3-{3-([2-hydroxyethylamino]methyl)phenylmethoxy}-2-pyrazinyl]benzenesulphonamide]
200 to 201	COC(=O)c1nc(OC)c(NS(=O)(=O)c2cccc(Cl)c2Cl)nc1Cl [Example 126, 3-Chloro-5-{[(2,3-dichlorophenyl)sulphonyl]amino}-6-methoxypyrazine-2-carboxylic acid, methyl ester]
160 to 161	COc1nc(CO)cnc1NS(=O)(=O)c1cccc(Cl)c1Cl [Example 138]
163 to 164	COc1ccc(COc2nc(Cl)cnc2NS(=O)(=O)c2cccc(Cl)c2Cl)cc1 [Example 97, 2,3-Dichloro-N-[5-chloro-3-(4-methoxyphenylmethoxy)-2-pyrazinyl]benzenesulphonamide]
117 to 118	COc1nc(SCCN(C)C)cnc1NS(=O)(=O)c1cccc(Cl)c1Cl [Example 205, 2,3-Dichloro-N-{5-[2-(dimethylamino)ethylsulphanyl]-3-methoxy-2-pyrazinyl]benzenesulphonamide]
167 to 168	O=S(=O)(Nc1nccnc1OCc1ccccn1)c1cccc(Cl)c1Cl [Example 28, 2,3-Dichloro-N-[3-(2-pyridinylmethoxy)-2-pyrazinyl]benzenesulphonamide]
205 to 206	O=S(=O)(Nc1ncc(Cl)nc1OCc1cncnc1)c1cccc(Cl)c1Cl [Example 37, N-[5-Chloro-3-(5-pyrimidinylmethoxy)-2-pyrazinyl]-2,3-dichlorobenzenesulphonamide]
123 to 124	O=S(=O)(Nc1nc(Cl)cnc1Br)c1cccc(Cl)c1Cl [Example 98]

Molecular target: T1, human recombinant CCR4 receptor (Homo sapiens, UniProt P51679)
T1 construct: host or cells: CHO-K1
T1 sequence (P51679 1-360): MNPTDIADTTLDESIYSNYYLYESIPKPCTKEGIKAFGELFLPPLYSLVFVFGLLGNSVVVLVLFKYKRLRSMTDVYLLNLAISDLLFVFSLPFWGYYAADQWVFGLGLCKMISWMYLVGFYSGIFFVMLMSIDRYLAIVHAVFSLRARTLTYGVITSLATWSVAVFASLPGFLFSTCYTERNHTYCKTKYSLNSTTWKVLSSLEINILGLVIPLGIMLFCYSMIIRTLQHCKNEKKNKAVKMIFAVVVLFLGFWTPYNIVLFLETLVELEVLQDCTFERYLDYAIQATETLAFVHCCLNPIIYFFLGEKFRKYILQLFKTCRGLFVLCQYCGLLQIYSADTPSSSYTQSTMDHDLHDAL
Assay: FMAT whole cell binding assay (FB-MDC binding to cells)
Conditions: CHO-K1 cells stably expressing human recombinant CCR4; inhibition of binding of fluorescent FB-MDC, two hours at room temperature
Procedure: FMAT Whole Cell Binding Assay
CHO—K1 cells stably expressing the human recombinant CCR4 receptor (Euroscreen; Brussels, Belgium) were cultured in NUT.MIX.F—12(HAM) medium with glutamax-1, containing 10% (v/v) foetal bovine serum and 400 μg ml^−1 geneticin.
Cells were harvested at approximately 70% confluence by treatment with a cell dissociation buffer, and seeded at 5×10^3 cells/100 μl culture medium into wells of a black Costar clear-bottomed 96-well microtitre plates. Plates were incubated overnight at 37° C. in 5% CO2 and used the following day.
Before use, the cell plates were washed twice with 100 μl Hanks balanced salt solution (HBSS). To each well was then added 65 μl of HBSS, 10 μL of 10% DMSO in HBSS±test compound and then 25 μL of 2.8 nM FB-MDC (Applied Biosystems). This fluorescent probe was prepared from a 10 μM stock in 0.08% (v/v) TFA/16% (v/v) acetonitrile, diluted into HBSS.
After two hours incubation in the dark at room temperature, the plates were analysed in an FMAT8100 reader (Applied Biosystems) to measure fluorescence that was associated with binding of FB-MDC to the cells.

IC50 [nM]	Structure (SMILES)
631	COc1nc(CN2CCOCC2)cnc1NS(=O)(=O)c1cccc(Cl)c1Cl [Example 186, 2,3-Dichloro-N-[3-methoxy-5-(4-morpholinylmethyl)-2-pyrazinyl]benzenesulphonamide]
63.1	COC(=O)c1nc(OC)c(NS(=O)(=O)c2cccc(Cl)c2Cl)nc1C [Example 119, 5-(2,3-Dichlorobenzenesulphonylamino)-6-methoxy-3-methylpyrazine-2-carboxylic aicd, methyl ester]
